Measurements: ChEMBL document CHEMBL5137082, “Discovery of a Novel Vascular Disrupting Agent Inhibiting Tubulin Polymerization and HDACs with Potent Antitumor Effects” (J Med Chem, 2022)
Calls of active or inactive are those of the source. The rule behind the calls is not given here.

Legend:
[1] = Metabolic stability in mouse plasma assessed as compound remaining at 40 uM measured after 1 hrs by LC-MS/MS analysis (reference value: 100%); type: ADME, cell-free
[2] = Metabolic stability in mouse assessed as hepatic clearance; type: ADME; settings: 1 h, 1 µM, time < 60 min
Histone deacetylase 2 = Histone deacetylase 2 (Homo sapiens, UniProt Q92769); experiment: Inhibition of HDAC2 in human HepG2 cells assessed as increase in level of acetyl histone H3substrate incubated for 24 hrs by chemiluminescence based Western blotting analysis; type: cell-based; settings: dose 0.03-0.3 µM
Histone deacetylase 2, sequence (Q92769 whole entry): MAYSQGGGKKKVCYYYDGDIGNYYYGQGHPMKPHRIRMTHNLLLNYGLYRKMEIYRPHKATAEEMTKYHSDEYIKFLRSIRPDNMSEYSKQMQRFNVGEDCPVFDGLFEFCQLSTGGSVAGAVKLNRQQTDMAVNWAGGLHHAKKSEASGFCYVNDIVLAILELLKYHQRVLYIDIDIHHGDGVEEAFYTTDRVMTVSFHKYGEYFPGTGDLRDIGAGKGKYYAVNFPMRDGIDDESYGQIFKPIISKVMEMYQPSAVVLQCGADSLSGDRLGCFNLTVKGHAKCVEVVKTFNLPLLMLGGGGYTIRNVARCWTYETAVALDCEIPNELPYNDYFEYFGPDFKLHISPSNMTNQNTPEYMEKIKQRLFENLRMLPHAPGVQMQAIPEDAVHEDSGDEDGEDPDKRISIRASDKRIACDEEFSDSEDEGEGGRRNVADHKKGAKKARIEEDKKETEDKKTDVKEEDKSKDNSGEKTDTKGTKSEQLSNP

Histone deacetylase 3 = Histone deacetylase 3 (Homo sapiens, UniProt O15379); experiment: Inhibition of HDAC3 in human HeLa cells using BOC-K(Ac)-AMC as substrate measured after 30 mins by fluorescence based microtiter plate reader assay; type: cell-based
Histone deacetylase 3, sequence (O15379 whole entry): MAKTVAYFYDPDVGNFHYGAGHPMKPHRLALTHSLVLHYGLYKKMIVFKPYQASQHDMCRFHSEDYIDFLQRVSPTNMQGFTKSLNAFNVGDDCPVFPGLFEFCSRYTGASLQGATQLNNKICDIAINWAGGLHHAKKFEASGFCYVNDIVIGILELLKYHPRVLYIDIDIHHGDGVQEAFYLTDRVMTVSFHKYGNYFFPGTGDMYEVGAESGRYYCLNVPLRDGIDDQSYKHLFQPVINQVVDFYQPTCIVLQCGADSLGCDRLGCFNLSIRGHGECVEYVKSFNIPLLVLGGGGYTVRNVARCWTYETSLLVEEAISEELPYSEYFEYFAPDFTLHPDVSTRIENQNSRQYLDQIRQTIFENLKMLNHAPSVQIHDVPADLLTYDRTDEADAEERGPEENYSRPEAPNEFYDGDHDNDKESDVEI

K562 = experiment: cells; type: functional, cell-based; settings: Homo sapiens, K562, 72 h
Description: Antiproliferative activity against human K562 cells assessed as inhibition of cell growth measured after 72 hrs by MTT assay

MDA-MB-231 [3] = experiment: Inhibition of cell migration in human MDA-MB-231 cells measured after 48 hrs by crystal violet staining based transwell assay; type: functional; settings: dose 7.5-30 nM, DDE = dose-dependent effect
MCF7 = experiment: Antiproliferative activity against human MCF7 cells assessed as inhibition of cell growth measured after 72 hrs by MTT assay; type: functional, cell-based; settings: MCF7, 72 h
MDA-MB-231 [4] = experiment: Antiproliferative activity against human MDA-MB-231 cells assessed as inhibition of cell growth measured after 72 hrs by MTT assay; type: functional, cell-based; settings: MDA-MB-231, 72 h
PC-3 [5] = experiment: Induction of apoptosis in human PC-3 cells assessed as mitochondrial membrane potential loss by measuring decrease in red fluorescence at 15 nM incubated for 48 hrs by JC1 staining based flow cytometry analysis (reference value: 93.48 +/- 0.15%); type: functional; parameters: scale not given: the % may be the effect or the level left
HepG2 [6] = experiment: Induction of apoptosis in human HepG2 cells assessed as necrotic cells at 30 nM incubated for 48 hrs by Annexin-V/PI-staining based flow cytometry (reference value: 1.43 +/- 0.26%); type: functional
[7] = molecular target: T1, Protein deacetylase HDAC6 (Homo sapiens, UniProt Q9UBN7); experiment: Inhibition of HDAC6 in human HeLa cells using BOC-K(Ac)-AMC as substrate measured after 30 mins by fluorescence based microtiter plate reader assay; type: cell-based
T1 sequence (Q9UBN7 whole entry): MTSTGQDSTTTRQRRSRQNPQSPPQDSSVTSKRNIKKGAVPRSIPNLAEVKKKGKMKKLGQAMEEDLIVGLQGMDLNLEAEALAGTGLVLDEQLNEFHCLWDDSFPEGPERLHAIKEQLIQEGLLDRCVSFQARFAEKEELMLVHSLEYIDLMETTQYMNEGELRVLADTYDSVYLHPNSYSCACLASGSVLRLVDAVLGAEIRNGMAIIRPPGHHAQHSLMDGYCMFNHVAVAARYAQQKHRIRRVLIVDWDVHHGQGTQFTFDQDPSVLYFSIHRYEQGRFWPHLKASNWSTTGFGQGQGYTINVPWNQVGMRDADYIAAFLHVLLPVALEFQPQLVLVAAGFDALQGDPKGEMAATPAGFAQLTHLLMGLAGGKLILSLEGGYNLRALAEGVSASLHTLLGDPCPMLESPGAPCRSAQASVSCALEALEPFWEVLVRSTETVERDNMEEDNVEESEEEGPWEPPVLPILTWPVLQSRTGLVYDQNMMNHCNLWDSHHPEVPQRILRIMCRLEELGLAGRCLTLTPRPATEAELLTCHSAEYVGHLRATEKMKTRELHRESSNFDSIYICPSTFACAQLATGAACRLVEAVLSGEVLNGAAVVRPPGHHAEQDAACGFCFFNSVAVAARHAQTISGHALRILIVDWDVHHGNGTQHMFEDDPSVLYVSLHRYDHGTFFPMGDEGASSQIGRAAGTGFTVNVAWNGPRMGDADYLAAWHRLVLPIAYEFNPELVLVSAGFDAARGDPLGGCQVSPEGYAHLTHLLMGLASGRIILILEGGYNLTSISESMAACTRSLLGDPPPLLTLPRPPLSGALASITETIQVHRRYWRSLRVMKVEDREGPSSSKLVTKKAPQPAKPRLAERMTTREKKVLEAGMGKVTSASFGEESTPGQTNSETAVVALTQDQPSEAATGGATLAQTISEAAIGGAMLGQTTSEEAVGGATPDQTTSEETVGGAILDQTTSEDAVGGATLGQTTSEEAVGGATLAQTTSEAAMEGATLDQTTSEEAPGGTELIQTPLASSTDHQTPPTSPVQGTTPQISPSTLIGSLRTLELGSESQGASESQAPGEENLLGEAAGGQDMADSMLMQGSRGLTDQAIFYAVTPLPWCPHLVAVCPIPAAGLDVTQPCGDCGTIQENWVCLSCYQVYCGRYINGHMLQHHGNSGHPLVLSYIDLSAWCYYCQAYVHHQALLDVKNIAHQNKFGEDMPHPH

PC-3 [8] = experiment: Induction of apoptosis in human PC-3 cells assessed as mitochondrial membrane potential loss by measuring early apoptotic cells at 15 nM incubated for 48 hrs by JC1 staining based flow cytometry analysis (reference value: 6.50 +/- 0.17%); type: functional
[9] = Metabolic stability in mouse plasma assessed as half life at 40 uM measured upto 5 hrs by LC-MS/MS analysis; type: ADME, cell-free
[10] = Cardiotoxicity in ICR mouse allografted with mouse H22 cells assessed as effect on QRS complex at 20 mg/kg, iv administered qd measured after 21 days by ECG analysis; type: toxicity, organism-based; settings: in vivo, 504 h, time 21 day
HepG2 [11] = experiment: Induction of G2/M phase cell cycle arrest in human HepG2 cells assessed as decrease in cyclin B1 protein expression at 7.5 to 30 nM measured after 24 hrs by western blot analysis; type: functional, cell-based; settings: dose 7.5-30 nM
HepG2 [12] = experiment: Induction of ROS generation in human HepG2 cells assessed as increase in ROS level at 30 nM incubated for 48 hrs by DCF-DA staining-based flow cytometry analysis (reference value: 3.73%); type: functional
HepG2 [13] = experiment: Induction of cell cycle arrest in human HepG2 cells assessed as accumulation G1 phase at 30 nM incubated for 48 hrs by propidium iodide staining based flow cytometry analysis (reference value: 59.32 +/- 0.77%); type: functional
PC-3 [14] = experiment: Induction of apoptosis in human PC-3 cells assessed as mitochondrial membrane potential loss by measuring early apoptotic cells at 30 nM incubated for 48 hrs by JC1 staining based flow cytometry analysis (reference value: 6.50 +/- 0.17%); type: functional
HepG2 [15] = experiment: Induction of cell cycle arrest in human HepG2 cells assessed as accumulation S phase at 7.5 nM incubated for 48 hrs by propidium iodide staining based flow cytometry analysis (reference value: 17.14 +/- 0.34%); type: functional
[16] = Toxicity in ICR mouse allografted with mouse H22 cells assessed as pathological changes in spleen at 20 mg/kg, iv administered qd measured after 21 days by H and E staining based analysis; type: organism-based; settings: in vivo, 504 h, time 21 day
HepG2 [17] = experiment: Induction of G2/M phase cell cycle arrest in human HepG2 cells assessed as decrease in Cdc2 protein expression at 7.5 to 30 nM measured after 24 hrs by western blot analysis; type: functional, cell-based; settings: dose 7.5-30 nM
HUVEC = experiment: Antivascular activity against HUVEC cells assessed as inhibition of capillary-like tubule formation at 30 nM measured after 6 hrs by inverted microscopy; type: functional, cell-based; settings: Homo sapiens

Stability [1]: 45.6%
CLH [2]: 1.45 mL/min
inhibition (Histone deacetylase 2): Active
IC50 (Histone deacetylase 3): 242 nM
IC50 (K562): 18 nM
IC50 (MCF7): 27 nM
IC50 (MDA-MB-231 [4]): 30 nM
IC50 [7]: 138 nM
half-life at 40 µM [9]: 2.1 h
SMILES: COc1ccc(CNC(=O)c2cc(F)ccc2N2CCOCC2)cc1/C=C/C(=O)NO
inhibition (MDA-MB-231 [3]): Dde
Activity (PC-3 [5]): 61.56%
Activity (HepG2 [6]): 2.85%
Activity (PC-3 [8]): 35.4%
Activity [10]: Non-Toxic
Activity (HepG2 [11]): Active
Activity (HepG2 [12]): 46.69%
Activity (HepG2 [13]): 43.33%
Activity (PC-3 [14]): 59.5%
Activity (HepG2 [15]): 20.81%
Activity [16]: Non-Toxic
Activity (HepG2 [17]): Active
Activity (HUVEC): Active
